According to patent publication US20240158446A1, “CYCLIC COMPOUND HAVING SELECTIVE INHIBITORY ACTION ON KRAS OVER HRAS AND NRAS” (CHUGAI SEIYAKU KABUSHIKI KAISHA, priority 2021, published 2024):

Assays:
[1] = target: GDP-bound NRAS wild-type protein (Homo sapiens, UniProt P01111); test: Binding to NRAS by surface plasmon resonance (SPR), Single Cycle Kinetics; settings: SPR KD ratio NRAS/KRAS, class symbols
[2] = target: GDP-bound KRAS wild-type protein (Homo sapiens, UniProt P01116); test: Binding to KRAS by surface plasmon resonance (SPR), Single Cycle Kinetics; settings: SPR Single Cycle Kinetics, GDP-bound KRAS wild-type protein, 1:1 binding model; read-out: KRAS KD
[3] = target: GDP-bound HRAS wild-type protein (Homo sapiens, UniProt P01112); test: Binding to HRAS by surface plasmon resonance (SPR), Single Cycle Kinetics; settings: SPR KD ratio HRAS/KRAS, class symbols
Sequence of GDP-bound HRAS wild-type protein (P01112 whole entry): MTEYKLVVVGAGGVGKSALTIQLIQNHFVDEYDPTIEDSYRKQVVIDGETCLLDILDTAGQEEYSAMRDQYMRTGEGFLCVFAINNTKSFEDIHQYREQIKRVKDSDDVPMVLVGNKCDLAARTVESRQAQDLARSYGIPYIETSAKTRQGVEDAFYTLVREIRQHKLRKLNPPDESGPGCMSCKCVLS

Sequence of GDP-bound KRAS wild-type protein (P01116 whole entry): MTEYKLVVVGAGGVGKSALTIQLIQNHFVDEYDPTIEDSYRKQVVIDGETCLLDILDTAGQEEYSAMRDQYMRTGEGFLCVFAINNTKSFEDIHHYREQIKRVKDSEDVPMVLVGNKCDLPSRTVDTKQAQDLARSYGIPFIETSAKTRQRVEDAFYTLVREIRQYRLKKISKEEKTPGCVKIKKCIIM
Sequence of GDP-bound NRAS wild-type protein (P01111 whole entry): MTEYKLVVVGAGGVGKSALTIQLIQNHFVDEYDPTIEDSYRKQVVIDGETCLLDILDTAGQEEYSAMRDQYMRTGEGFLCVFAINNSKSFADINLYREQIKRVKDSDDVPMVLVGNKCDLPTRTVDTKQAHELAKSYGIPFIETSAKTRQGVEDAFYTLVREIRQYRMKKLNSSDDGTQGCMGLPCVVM

Row | SMILES | NRAS/KRAS (ratio of KD value with respect to GDP-bound NRAS wild-type protein to KD value with respect to KRAS) [1] | Kd [2] [nM] | HRAS/KRAS (ratio of KD value with respect to GDP-bound HRAS wild-type protein to KD value with respect to KRAS) [3]
1 | CCC(CC)[C@H]1C(=O)N(C)[C@H](C(=O)N(C)C)CC(=O)N(C)[C@@H](COC)C(=O)N[C@@H]([C@@H](C)CC)C(=O)N(C)CC(=O)N(C)[C@H]2C/C=C\CCN(C2=O)[C@@H](Cc2ccc(C(F)(F)F)cc2)C(=O)N(C)CC(=O)N[C@@H](CCc2ccc(Cl)c(Cl)c2)C(=O)N2CCOC[C@H]2C(=O)NC2(CC(C)(C)C2)C(=O)N1C [PP2941] | AA (a compound having 20 or more is denoted as AA) | 2.5 | A (a compound having 10 or more and less than 20 is denoted as A)
2 | CCC[C@H]1C(=O)N[C@@H]([C@@H](C)CC)C(=O)N(C)CC(=O)N(C)[C@H]2C/C=C\CCN(C2=O)[C@@H](Cc2ccc(C(F)(F)F)cc2)C(=O)N(C)CC(=O)N[C@@H](CCc2cc(Cl)c3sccc3c2)C(=O)N2C[C@H](OCC)C[C@H]2C(=O)NC2(CC(C)(C)C2)C(=O)N(C)[C@@H](C2CCCC2)C(=O)N(C)[C@H](C(=O)N(C)C)CC(=O)N1C [PP2946] | A (a compound having 10 or more and less than 20 is denoted as A) | 0.052 | A (a compound having 10 or more and less than 20 is denoted as A)
3 | CCC[C@H]1C(=O)N[C@@H]([C@@H](C)CC)C(=O)N(C)CC(=O)N(C)[C@H]2C/C=C\CCN(C2=O)[C@@H](Cc2ccc(C(F)(F)F)cc2)C(=O)N(C)CC(=O)N[C@@H](CCc2ccc3sc(F)c(C)c3c2)C(=O)N2C[C@H](OCC)C[C@H]2C(=O)NC2(CC(C)(C)C2)C(=O)N(C)[C@@H](C2CCCC2)C(=O)N(C)[C@H](C(=O)N(C)C)CC(=O)N1C [PP2948] | A (a compound having 10 or more and less than 20 is denoted as A) | 0.055 | A (a compound having 10 or more and less than 20 is denoted as A)
4 | CCC[C@H]1C(=O)N[C@@H]([C@@H](C)CC)C(=O)N(C)CC(=O)N(C)[C@H]2C/C=C\CCN(C2=O)[C@@H](Cc2ccc(C)cc2)C(=O)N(C)CC(=O)N[C@@H](CCc2ccc3sc(F)c(C)c3c2)C(=O)N2C[C@H](OCC)C[C@H]2C(=O)NC2(CC(C)(C)C2)C(=O)N(C)[C@@H](C2CCCC2)C(=O)N(C)[C@H](C(=O)N(C)C)CC(=O)N1C [PP2949] | A (a compound having 10 or more and less than 20 is denoted as A) | 0.059 | A (a compound having 10 or more and less than 20 is denoted as A)
5 | CCC[C@H]1C(=O)N[C@@H]([C@@H](C)CC)C(=O)N(C)CC(=O)N(C)[C@H]2C/C=C\CCN(C2=O)[C@@H](Cc2ccc(C(F)(F)F)cc2)C(=O)N(C)CC(=O)N[C@@H](CCc2cc(Cl)c3c(ccn3C)c2)C(=O)N2C[C@H](OCC)C[C@H]2C(=O)NC2(CC(C)(C)C2)C(=O)N(C)[C@@H](C2CCCC2)C(=O)N(C)[C@H](C(=O)N(C)C)CC(=O)N1C [PP2950] | A (a compound having 10 or more and less than 20 is denoted as A) | 0.76 | A (a compound having 10 or more and less than 20 is denoted as A)
6 | CCO[C@@H]1C[C@H]2C(=O)NC3(CCC3)C(=O)N(C)[C@@H](C3CCCC3)C(=O)N(C)[C@H](C(=O)N3CCCCC3)CC(=O)N(C)[C@H]3CCC/C=C/c4ccc(cc4)C[C@@H](C(=O)N(C)CC(=O)N[C@@H](CCc4cc(F)c(C(F)(F)F)c(F)c4)C(=O)N2C1)N1CC/C=C\C[C@@H](C1=O)N(C)C(=O)CN(C1CC1)C(=O)[C@H]([C@@H](C)CC)NC3=O [PP2954] | A (a compound having 10 or more and less than 20 is denoted as A) | 0.37 | A (a compound having 10 or more and less than 20 is denoted as A)
7 | CCO[C@@H]1C[C@H]2C(=O)NC3(CCC3)C(=O)N(C)[C@@H](C(CC)CC)C(=O)N(C)[C@H](C(=O)N3CCCCC3)CC(=O)N(C)[C@H]3CCC/C=C/c4ccc(cc4)C[C@@H](C(=O)N(C)CC(=O)N[C@@H](CCc4cc(F)c(C(F)(F)F)c(F)c4)C(=O)N2C1)N1CC/C=C\C[C@@H](C1=O)N(C)C(=O)CN(C1CC1)C(=O)[C@H]([C@@H](C)CC)NC3=O [PP2956] | AA (a compound having 20 or more is denoted as AA) | 1.1 | A (a compound having 10 or more and less than 20 is denoted as A)
8 | CCO[C@@H]1C[C@H]2C(=O)NC3(CCC3)C(=O)N(C)[C@@H](C(CC)CC)C(=O)N(C)[C@H](C(=O)N3CCCC3)CC(=O)N(C)[C@H]3CCC/C=C/c4ccc(cc4)C[C@@H](C(=O)N(C)CC(=O)N[C@@H](CCc4cc(F)c(C(F)(F)F)c(F)c4)C(=O)N2C1)N1CC/C=C\C[C@@H](C1=O)N(C)C(=O)CN(C1CC1)C(=O)[C@H]([C@@H](C)CC)NC3=O [PP2957] | AA (a compound having 20 or more is denoted as AA) | 0.23 | A (a compound having 10 or more and less than 20 is denoted as A)
9 | CCC(CC)[C@H]1C(=O)N(C)[C@H](C(=O)N(C)C)CC(=O)N(C)[C@@H](COC)C(=O)N[C@@H]([C@@H](C)CC)C(=O)N(C)CC(=O)N(C)[C@H]2C/C=C\CCN(C2=O)[C@@H](Cc2ccc(C(F)(F)F)cc2)C(=O)N(C)CC(=O)N[C@@H](CCc2cc(F)c(C(F)(F)F)c(F)c2)C(=O)N2CC3(CC3)C[C@H]2C(=O)NC2(CC(C)(C)C2)C(=O)N1C [PP2961] | AA (a compound having 20 or more is denoted as AA) | 0.36 | A (a compound having 10 or more and less than 20 is denoted as A)
10 | CCC[C@H]1C(=O)N[C@@H]([C@@H](C)CC)C(=O)N(C)CC(=O)N(C)[C@H]2C/C=C\CCN(C2=O)[C@@H](Cc2ccc(C)cc2)C(=O)N(C)CC(=O)N[C@@H](CCc2ccc(Cl)c(Cl)c2)C(=O)N2CCCCC[C@H]2C(=O)NC2(CC(C)(C)C2)C(=O)N(C)[C@@H](C(CC)CC)C(=O)N(C)[C@H](C(=O)N(C)C)CC(=O)N1C [PP2962] | AA (a compound having 20 or more is denoted as AA) | 1.2 | A (a compound having 10 or more and less than 20 is denoted as A)
11 | CCC(CC)[C@H]1C(=O)N(C)[C@H](C(=O)N(C)C)CC(=O)N(C)[C@@H](COC)C(=O)N[C@@H]([C@@H](C)CC)C(=O)N(C)CC(=O)N(C)[C@H]2C/C=C\CCN(C2=O)[C@@H](Cc2ccc(C)cc2)C(=O)N(C)CC(=O)N[C@@H](CCc2cc(F)c(C(F)(F)F)c(F)c2)C(=O)N2CC3(CC3)C[C@H]2C(=O)NC2(CC(C)(C)C2)C(=O)N1C [PP2963] | AA (a compound having 20 or more is denoted as AA) | 0.39 | A (a compound having 10 or more and less than 20 is denoted as A)
12 | CCC[C@H]1C(=O)N[C@@H]([C@@H](C)CC)C(=O)N(C)CC(=O)N(C)[C@H]2C/C=C\CCN(C2=O)[C@@H](Cc2ccc(C(F)(F)F)cc2)C(=O)N(C)CC(=O)N[C@@H](CCc2ccc(C(F)(F)F)c(Cl)c2)C(=O)N2CCCCC[C@H]2C(=O)NC2(CC(C)(C)C2)C(=O)N(C)[C@@H](C(CC)CC)C(=O)N(C)[C@H](C(=O)N(C)C)CC(=O)N1C [PP2964] | AA (a compound having 20 or more is denoted as AA) | 0.85 | A (a compound having 10 or more and less than 20 is denoted as A)
13 | CCC(CC)[C@H]1C(=O)N(C)[C@H](C(=O)N(C)C)CC(=O)N(C)[C@@H](COC)C(=O)N[C@@H]([C@@H](C)CC)C(=O)N(C)CC(=O)N(C)[C@H]2C/C=C\CCN(C2=O)[C@@H](Cc2ccc(C(F)(F)F)cc2)C(=O)N(C)CC(=O)N[C@@H](CCc2ccc(C(F)(F)F)c(Cl)c2)C(=O)N2CC3(CC3)C[C@H]2C(=O)NC2(CC(C)(C)C2)C(=O)N1C [PP2965] | AA (a compound having 20 or more is denoted as AA) | 0.47 | A (a compound having 10 or more and less than 20 is denoted as A)
14 | CCC[C@H]1C(=O)N[C@@H]([C@@H](C)CC)C(=O)N(C)CC(=O)N(C)[C@H]2C/C=C\CCN(C2=O)[C@@H](Cc2ccc(C(F)(F)F)cc2)C(=O)N(C)CC(=O)N[C@@H](CCc2ccc(C(F)(F)F)c(OC)c2)C(=O)N2CCCCC[C@H]2C(=O)NC2(CC(C)(C)C2)C(=O)N(C)[C@@H](C(CC)CC)C(=O)N(C)[C@H](C(=O)N(C)C)CC(=O)N1C [PP2968] | AA (a compound having 20 or more is denoted as AA) | 0.55 | A (a compound having 10 or more and less than 20 is denoted as A)
15 | CCC[C@H]1C(=O)N[C@@H]([C@@H](C)CC)C(=O)N(C)CC(=O)N(C)[C@H]2C/C=C\CCN(C2=O)[C@@H](Cc2ccc(C(F)(F)F)cc2)C(=O)N(C)CC(=O)N[C@@H](CCc2ccc(C(F)(F)F)c(Cl)c2)C(=O)N2C[C@H](OCC)C[C@H]2C(=O)NC2(CC(C)(C)C2)C(=O)N(C)[C@@H](CC(C)(C)C)C(=O)N(C)[C@H](C(=O)N(C)C)CC(=O)N1C [PP2969] | AA (a compound having 20 or more is denoted as AA) | 0.073 | A (a compound having 10 or more and less than 20 is denoted as A)
